Laboratory results: ChEMBL document CHEMBL3856267, “Identification of 5,6-dihydroimidazo[2,1-b]thiazoles as a new class of antimicrobial agents” (Bioorg Med Chem, 2016)
The source made the active and inactive calls. The calls are words filed in the database; no cut-off is given here.

Columns and labels:
[1] = tested on: Staphylococcus aureus; assay: Antimicrobial activity against methicillin-resistant Staphylococcus aureus ATCC 33591 measured after overnight incubation by microdilution broth method; format: functional
[2] = Antimicrobial activity against vancomycin-intermediate Staphylococcus aureus Mu50 ATCC 700699 measured after overnight incubation by microdilution broth method; format: functional, Staphylococcus aureus subsp. aureus Mu50
[3] = tested on: Staphylococcus aureus; assay: Antimicrobial activity against methicillin-resistant Staphylococcus aureus ATCC BAA-44 measured after overnight incubation by microdilution broth method; format: functional
[4] = tested on: Staphylococcus aureus; assay: Antimicrobial activity against methicillin-resistant Staphylococcus aureus USA300-0114 infected in Galleria Mellonella assessed as increase in survival of worms at 5 times MIC measured 24 to 48 hrs post dose; format: functional
[5] = Hemolytic activity in human RBC at 128 ug/ml after 1 hr; format: ADME, cell-based, Erythrocyte; settings: red blood cells, read-out: Activity
[6] = Selectivity ratio of MIC90 for vancomycin-intermediate Staphylococcus aureus Mu50 ATCC 700699 to MIC90 for methicillin-resistant Staphylococcus aureus ATCC BAA-44; format: functional
[7] = tested on: Staphylococcus aureus; assay: Inhibition of Staphylococcus aureus DNA gyrase assessed as reduction in supercoiling of relaxed pHOT-1 after 30 mins by SDS based agarose gel electrophoresis
[8] = tested on: Staphylococcus aureus; assay: Antimicrobial activity against methicillin-resistant Staphylococcus aureus USA300-0114 infected in Galleria Mellonella assessed as increase in larvae survival at 10 times MIC measured 24 to 48 hrs post dose; format: functional
[9] = Cytotoxicity against HEK cells assessed as reduction in cell viability after 48 hrs by MTT assay; format: toxicity, cell-based, HEK293; settings: human, read-out: MIC50
[10] = Therapeutic index, ratio of IC50 for HEK cells to MIC90 for methicillin-resistant Staphylococcus aureus ATCC BAA-44; format: cell-based, HEK293; settings: human, read-out: TI
[11] = tested on: Staphylococcus aureus; assay: Growth inhibition of methicillin-resistant Staphylococcus aureus ATCC 33591 at 64 ug/ml measured after overnight incubation by microdilution broth method relative to control; format: functional; settings: read-out: GI
[12] = Selectivity ratio of MIC90 for methicillin-resistant Staphylococcus aureus ATCC 33591 to MIC90 for methicillin-resistant Staphylococcus aureus ATCC BAA-44; format: functional

| Compound | MIC90 [1] | MIC90 [2] | MIC90 [3] | Activity [4] | hemolysis at 1 h, 128 ug/ml [5] | Selectivity ratio [6] | inhibition [7] | Activity [8] | CC50 at 48 h [9] | selectivity ratio [10] | inhibition of growth at 64 µg/mL [11] | Selectivity ratio [12] |
| --- | --- | --- | --- | --- | --- | --- | --- | --- | --- | --- | --- | --- |
| CN[C@H](CC(C)C)C(=O)N[C@H]1C(=O)N[C@@H](CC(N)=O)C(=O)N[C@H]2C(=O)N[C@H]3C(=O)N[C@H](C(=O)N[C@H](C(=O)O)c4cc(O)cc(O)c4-c4cc3ccc4O)[C@H](O)c3ccc(c(Cl)c3)Oc3cc2cc(c3O[C@@H]2O[C@H](CO)[C@@H](O)[C@H](O)[C@H]2O[C@H]2C[C@](C)(N)[C@H](O)[C@H](C)O2)Oc2ccc(cc2Cl)[C@H]1O [VANCOMYCIN] | 2 µg/mL | 8 µg/mL | 4 µg/mL |  |  |  |  |  |  |  |  |  |
| CC(C)C[C@@H]1CN2C(=N1)SC(c1ccccc1)=C2c1ccccc1 | 12 µM | 24 µM | 11 µM | Active | < 2% | 2 | Dose-dependent effect | Active | 56 µM | 5 |  |  |
| N=C(N)NCCC[C@@H]1CN2C(c3ccc4ccccc4c3)=CSC2=N1 | 69 µM | 184 µM | 69 µM |  | < 2% | 2 |  |  | 257 µM | 3.7 |  |  |
| Cn1cc(C[C@H]2CN3C(c4ccc5ccccc5c4)=CSC3=N2)c2ccccc21 | 162 µM |  | 20 µM |  | < 2% |  |  |  |  |  | > 80% | 2 |
| Cn1cc(C[C@H]2CN3C(=N2)SC(c2ccccc2)=C3c2ccccc2)c2ccccc21 | 151 µM |  | 19 µM |  | < 2% |  |  |  |  |  | > 80% | 2 |
| Oc1ccc(C[C@H]2CN3C(=N2)SC(c2ccccc2)=C3c2ccccc2)cc1 | 84 µM |  | 42 µM |  | < 2% |  |  |  |  |  | > 80% | 2 |
| CC(C)C[C@H]1CN2C(c3ccc4ccccc4c3)=CSC2=N1 | 102 µM |  | 51 µM |  | < 2% |  |  |  |  |  | > 80% | 2 |
| CC(C)C[C@@H]1CN2C(c3ccc4ccccc4c3)=CSC2=N1 | 51 µM | 102 µM | 51 µM |  | < 2% | 2 |  |  | 36 µM | 0.7 |  |  |
| c1ccc(C[C@H]2CN3C(=N2)SC(c2ccccc2)=C3c2ccccc2)cc1 | 173 µM |  | 21 µM |  | < 2% |  |  |  |  |  | > 80% | 2 |
| CC(C)C[C@H]1CN2C(=N1)SC(c1ccccc1)=C2c1ccccc1 | 48 µM |  | 24 µM |  | < 2% |  |  |  |  |  | > 80% | 2 |
| Cn1cc(C[C@@H]2CN3C(=N2)SC(c2ccccc2)=C3c2ccccc2)c2ccccc21 | 38 µM | 19 µM | 9.5 µM |  | < 2% | 2 |  |  | 63 µM | 6.6 |  |  |
| N=C(N)NCCC[C@H]1CN2C(c3ccc4ccccc4c3)=CSC2=N1 | 364 µM |  | 182 µM |  | < 2% |  |  |  |  |  | > 80% | 2 |
| N=C(N)NCCC[C@@H]1CN2C(=N1)SC(c1ccccc1)=C2c1ccccc1 | 111 µM | 338 µM | 338 µM |  | < 2% | 2 |  |  | 100 µM | 0.3 |  |  |
| c1ccc(C[C@@H]2CN3C(=N2)SC(c2ccccc2)=C3c2ccccc2)cc1 | 21 µM | 42 µM | 14.6 µM |  | < 2% | 2 |  |  | 71 µM | 4.9 |  |  |
| N=C(N)NCCC[C@H]1CN2C(=N1)SC(c1ccccc1)=C2c1ccccc1 | 169 µM |  | 338 µM |  | < 2% |  |  |  |  |  | > 80% | 2 |
| COc1cccc(OC)c1C(=O)N[C@@H]1C(=O)N2[C@@H]1SC(C)(C)[C@@H]2C(=O)O [METHICILLIN] | > 128 µg/mL | > 128 µg/mL | > 128 µg/mL |  |  |  |  |  |  |  |  |  |
| Oc1ccc(C[C@@H]2CN3C(=N2)SC(c2ccccc2)=C3c2ccccc2)cc1 | 20 µM | 40 µM | 31 µM |  | < 2% | 2 |  |  | 72 µM | 2.3 |  |  |
| Cn1cc(C[C@@H]2CN3C(c4ccc5ccccc5c4)=CSC3=N2)c2ccccc21 | 10 µM | 40 µM | 10 µM |  | < 2% | 2 |  |  | 20 µM | 2 |  |  |
